# Measured values taken from ChEMBL document CHEMBL1152018, “Molecular design of novel PGI2 agonists without PG skeleton. II” (Bioorg Med Chem Lett, 1995).
# Legend:
# Homo sapiens = organism: Homo sapiens; test: Inhibitory activity against ADP-induced platelet aggregation using human platelet rich plasma at a concentration of 4 uM by functional assay
# Prostacyclin receptor = Prostacyclin receptor (Homo sapiens, UniProt P43119); test: Displacement of [3H]iloprost from Prostaglandin I2 receptor of human platelets
# Sequence of Prostacyclin receptor (P43119 whole entry): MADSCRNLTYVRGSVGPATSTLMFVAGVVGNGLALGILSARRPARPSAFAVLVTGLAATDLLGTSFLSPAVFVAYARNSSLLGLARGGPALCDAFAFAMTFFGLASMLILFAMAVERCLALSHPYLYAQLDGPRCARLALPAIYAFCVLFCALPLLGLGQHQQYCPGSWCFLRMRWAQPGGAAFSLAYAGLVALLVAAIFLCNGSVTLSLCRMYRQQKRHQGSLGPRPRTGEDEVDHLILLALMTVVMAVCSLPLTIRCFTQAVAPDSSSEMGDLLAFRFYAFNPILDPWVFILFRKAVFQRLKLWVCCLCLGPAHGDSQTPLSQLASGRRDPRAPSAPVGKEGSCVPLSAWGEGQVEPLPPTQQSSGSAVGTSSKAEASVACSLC
# Canis familiaris = organism: Canis familiaris; test: Evaluated for ADP-induced antiaggregation of dog platelets; format: functional; conditions: Canis lupus familiaris
# Cavia porcellus [1] = organism: Cavia porcellus; test: Effective dose for ex vivo inhibition of platelet aggregation for four hours in guinea pigs; format: functional, organism-based
# Cavia porcellus [2] = organism: Cavia porcellus; test: Evaluated for ADP-induced antiaggregation of guinea pig platelets; format: functional
Structure (SMILES),IC50 (Homo sapiens),IC50 (Prostacyclin receptor),IC50 (Canis familiaris),EC50 (Cavia porcellus [1]),IC50 (Cavia porcellus [2])
C/C(CC1CCc2c(cccc2OCC(=O)O)C1)=N\OCc1ccccc1 (configuration not stated),12000 nM,5300 nM,,,
C/C(CC1CCc2c(cccc2OCC(=O)O)C1)=N\OC(c1ccccc1)c1ccccc1 (configuration not stated),,380 nM,,,
C/C(C[C@H]1CCc2c(cccc2OCC(=O)O)C1)=N\OC(c1ccccc1)c1ccccc1,,220 nM,,,
CC/C(CC1CCc2c(cccc2OCC(=O)O)C1)=N\OC(c1ccccc1)c1ccccc1 (configuration not stated),70 nM,150 nM,,,
C/C(C[C@@H]1CCc2c(cccc2OCC(=O)O)C1)=N\OC(c1ccccc1)c1ccccc1,1900 nM,2200 nM,,,

# Other lines, results leading:
IC50 (Homo sapiens),IC50 (Prostacyclin receptor),IC50 (Canis familiaris),EC50 (Cavia porcellus [1]),IC50 (Cavia porcellus [2]),Structure (SMILES)
2400 nM,2100 nM,,,,CCC/C(CCC1CCCc2c(OCC(=O)O)cccc21)=N\OC(c1ccccc1)c1ccccc1 (configuration not stated)
130 nM,,,,,CCC/C(C[C@H]1CCc2c(cccc2OCC(=O)O)C1)=N\OC(c1ccccc1)c1ccccc1
70 nM,1400 nM,,,,CCCCC[C@H](O)/C=C/[C@H]1[C@H](O)CC(=O)[C@@H]1CCCCCCC(=O)O [ALPROSTADIL]
,150 nM,7300 nM,0.82 mg/kg,1900 nM,CCC/C(CC1CCc2c(cccc2OCC(=O)O)C1)=N\OC(c1ccccc1)c1ccccc1 (configuration not stated) [AP-227]
